Activity calls are given as the source filed them. No cut-off for these calls is given here.
Columns and labels:
[1] = molecular target: Estrogen receptor beta (Homo sapiens) (UniProt Q92731); test: Displacement of E2-Alexa633 from GFP-tagged ERbeta expressed in COS7 cells at 1 uM by FACS; format: cell-based; details: COS-7
[2] = molecular target: Estrogen receptor beta (Homo sapiens) (UniProt Q92731); test: Agonist activity at GFP-tagged ERbeta expressed in COS7 cells assessed as PI3K activation at 10 nM by PIP3 nuclear accumulation assay; format: functional, cell-based; details: COS-7

Estrogen receptor beta (Homo sapiens), sequence (Q92731 whole entry): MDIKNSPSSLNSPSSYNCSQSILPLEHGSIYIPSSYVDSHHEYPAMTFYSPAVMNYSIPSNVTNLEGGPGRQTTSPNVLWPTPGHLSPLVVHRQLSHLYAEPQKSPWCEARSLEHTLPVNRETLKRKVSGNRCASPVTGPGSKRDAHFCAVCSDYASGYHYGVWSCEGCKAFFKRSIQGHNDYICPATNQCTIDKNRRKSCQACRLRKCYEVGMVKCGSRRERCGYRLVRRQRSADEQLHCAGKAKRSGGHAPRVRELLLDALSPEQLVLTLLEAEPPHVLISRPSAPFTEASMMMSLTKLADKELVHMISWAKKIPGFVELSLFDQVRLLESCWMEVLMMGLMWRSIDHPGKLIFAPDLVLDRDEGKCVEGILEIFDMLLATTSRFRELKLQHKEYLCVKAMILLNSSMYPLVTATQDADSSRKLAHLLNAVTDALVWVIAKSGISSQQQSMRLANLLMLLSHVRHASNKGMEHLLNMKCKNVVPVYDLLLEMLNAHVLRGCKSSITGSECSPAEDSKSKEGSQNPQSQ

- Activity [1]: inactive
- Activity [2]: inactive
Compound: CC(=O)c1ccc2c(c1)[C@@H]1C=CC[C@@H]1[C@H](c1cc3c(cc1Br)OCO3)N2
